The text below walks through data of the NIST ThermoML archive (doi:10.1021/je4004417).

What is called vapor or sublimation pressure is the pressure of vapour in equilibrium with the condensed phase. For orientation: refractive index means a measure of how strongly the sample bends light.

The conditions of data set [1]: Liquid, Closed cell (Static) method.
Data set [2] can be described thus: refractive index (Na D-line) (dimensionless). To be noted: 293.15 K; 101.33 kPa; Liquid; Standard Abbe refractometry.

The structures appear in SMILES notation. Values joined by “and” are separate entries in the source; they are usually repeats but may differ in a detail not shown here. Equal entries are not always repeated. ± gives the expanded uncertainty stated by the source.

As for `O=CN1CCOCC1` [N-formylmorpholine], the “vapor or sublimation pressure” value in data set [1] (343.15 K) was 0.16 ± 0.21 kPa and 0.15 ± 0.21 kPa; in data set [1] (363.15 K), 0.49 ± 0.21 kPa; in data set [1] (393.15 K) it was 2.18 ± 0.21 kPa. For the same molecule, the refractive index in data set [2] came to 1.4844 ± 0.0007.

As to `CCCCCCC` [heptane], the figures for the “vapor or sublimation pressure” value in data set [1] (343.15 K), in data set [1] (363.15 K) and in data set [1] (393.15 K) were 40.4 ± 0.31 kPa, 78.59 ± 0.43 kPa and 183.7 ± 2.2 kPa, respectively. For the same molecule, in data set [2], the refractive index was found to be 1.3877 ± 0.0007.

As for `CCCCCC` [hexane], the “vapor or sublimation pressure” value in data set [1] (343.15 K) was found to be 105.47 ± 2.2 kPa; in data set [1] (363.15 K) it was 190.95 ± 2.3 kPa; in data set [1] (393.15 K), 400.27 ± 2.5 kPa. Further, in data set [2], the refractive index was 1.3748 ± 0.0007.
